Read-outs that look alike come from different tables or passages of the source. Marks after values point to notes of the source that are not given here.
What was measured:
AAMU-Ab = experiment: Competitive antigen ELISA, cross-reactivity of AAMU-Ab; assay type: binding, rabbit; details: for % Cross-Reaction AAMU-Ab: competitive antigen ELISA, 0 = absence of inhibition or inhibition no higher than 40% at highest concentration tested (5×10^−3 M)
Procedure: (§1) Buffers and water without additives are filtered through millipore filters and kept for 1 week. BSA, antibodies, Tween™ 20 and horse radish peroxidase conjugates are added to these buffers and water just prior to use. Urine samples are usually collected 4 hours after drinking a cup of coffee (instant or brewed with approximately 100 mg of caffeine per cup) and stored at −80° C. The urine samples are diluted 10 times with sodium phosphate buffer (620 mosm, pH 7.50) and are subsequently diluted with water to give concentrations of AAMU and 1X no higher than 3×10^−6 M in the ELISA. All the pipettings are done with an eight-channel pipette, except those of the antibody and sample solutions. Starting with the last well, 100 μL of a carbonate buffer (100 mM, pH 9.6) containing 2.5 μg mL^−1 antibodies are added to each well. After 90 min. at room temperature, the wells are washed three times with […] of TPB: isotonic sodium phosphate buffer (310 mosm, pH 7.50) containing 0.05% Tween™ 20.
(§2) After the initial wash, unoccupied sites are blocked by incubation for 90 min. at room temperature with 100 μL TBP containing 3% BSA. The wells are washed four times with 100 μL TPB. […] The microplate is gently shaken with an orbital shaker at room temperature for 3-4 hours. The wells are washed three times with 100 μL TPB containing 1% BSA and three times with water containing 0.05% Tween™ 20. To the washed plate is added 150 μL of a substrate buffer composed of citric acid (25 mM) and sodium phosphate dibasic buffer (50 mM, pH 5.0) containing 0.06% hydrogen peroxide and 0.04% o-phenylenediamine hydrochloride.
(§3) Buffers and water without additives were filtered through millipore filters and kept for 1 week. BSA, antibodies, Tween™ 20 and horse radish peroxidase conjugates were added to these buffers and water just prior to use. Urine samples were usually collected 4 hours after drinking a cup of coffee (instant or brewed with approximately 100 mg of caffeine per cup) and stored at −80° C. They were diluted 10 times with sodium phosphate buffer (620 mosm, pH 7.50) and were subsequently diluted with water to give concentrations of AAMU and 1X no higher than 3×10^−6 M in the ELISA. All the pipettings were done with an eight-channel pipette, except those of the antibody and sample solutions. Starting with the last well, 100 μL of a carbonate buffer (100 mM, pH 9.6) containing 2.5 μg mL^−1 antibodies was pipetted. After 90 min. at room temperature, the wells were washed three times with 100 μL of TPB: isotonic sodium phosphate buffer (310 mosm, pH 7.50) containing 0.05% TweenTm 20.
(§4) After the initial wash, unoccupied sites were blocked by incubation for 90 min. at room temperature with […] TBP containing 3% BSA. The wells were washed four times with 100 μL TPB. […] The microplate was gently shaken with an orbital shaker at room temperature for 3-4 hours. The wells were washed three times with 100 μL with TPB containing 1% BSA and three times with water containing 0.05% Tween™ 20. To the washed plate was added 150 μL of a substrate buffer composed of citric acid (25 mM) and sodium phosphate dibasic buffer (50 mM, pH 5.0) containing 0.06% hydrogen peroxide and 0.04% o-phenylenediamine hydrochloride. After 20 min. at room temperature with shaking, the reaction was stopped with 50 μL of 2.5 N HCl.
(§5) The cross reactivities of AAMU-Ab and 1X-Ab were tested using a wide variety of caffeine metabolites and structural analogs (Table 2 below).

1X-Ab = experiment: Competitive antigen ELISA, cross-reactivity of 1X-Ab; assay type: binding, rabbit; details: for % Cross-Reaction 1X-Ab: competitive antigen ELISA, 0 = absence of inhibition or inhibition no higher than 40% at highest concentration tested (5×10^−3 M)
Procedure: as §1, §2, §3, §4, §5

[1] = p<0.05, cited from earlier work
[2] = cited from earlier work
breast cancer = details: first-line chemotherapy; cited from earlier work
[3] = individuals receiving 550 mg/m^2; cited from earlier work
[4] = tested on: estrogen receptor-positive breast cancer and bone metastases; details: cited from earlier work

Row | Structure (SMILES) | % Cross-Reaction AAMU-Ab (AAMU-Ab) | % Cross-Reaction 1X-Ab (1X-Ab) [%] | also measured
1 | Cn1c(=O)[nH]c2[nH]c(=O)[nH]c2c1=O [1-Methyluric acid] | 0% | 11 | –
2 | Cn1c(=O)c2c(ncn2C)n(C)c1=O [1,3,7-Trimethyl Xanthine (Caffeine), 1,3,7-Trimethyl Xanthine] | 0% | 0 | –
3 | Cn1cnc2c1c(=O)[nH]c(=O)n2C [3,7-Dimethyl Xanthine (Theobromine), 3,7-Dimethyl Xanthine] | 0% | 0 | –
4 | CC(=O)Nc1c(N)n(C)c(=O)n(C)c1=O [5-Acetamino-6-amino-1,3-dimethyluracil] | 0% | 0 | –
5 | CC(=O)Nc1c(N)[nH]c(=O)[nH]c1=O [5-Acetamino-6-amino-uracil] | 0.6% | 0 | –
6 | COc1ccc2c(c1)[C@]13CCCC[C@@H]1[C@H](C2)N(C)CC3 [Dextromethorphan] | – | – | mean performance +/-SE ([1]; extensive metabolizers (EMs)): 95+/−0.5%; mean performance +/-SE ([1]; poor metabolizers (PMs)): 86+/−6%
7 | Cn1c(=O)[nH]c2ncn(C)c2c1=O [1,7-Dimethyl Xanthine (Paraxanthine), 1,7-Dimethyl Xanthine] | 0% | 0.5 | –
8 | Cn1c(=O)[nH]c2nc[nH]c2c1=O [1-Methyl Xanthine (1X), 1-Methyl Xanthine] | 0% | 100 | IC50 (1X-Ab; read-out: concentration required for 50% inhibition in the competitive antigen ELISA, 1X-Ab): 10 µM
9 | Nc1nc2nc[nH]c2c(=O)[nH]1 [Guanine] | 0% | 0 | –
10 | O=c1[nH]c(=O)c2[nH]c(=O)[nH]c2[nH]1 [Uric acid] | 0% | 0 | –
11 | CC(=O)Nc1c(N)n(C)c(=O)[nH]c1=O [5-Acetamino-6-amino-1-methyluracil] | 100% | 0 | IC50 (AAMU-Ab; read-out: concentration required for 50% inhibition in the competitive antigen ELISA, AAMU-Ab): 1.5 µM
12 | O=c1cc[nH]c(=O)[nH]1 [Uracil] | 0% | 0 | –
13 | Cn1c(=O)[nH]c(=O)c2[nH]cnc21 [3-Methyl Xanthine] | 0% | 0 | –
14 | Nc1ccc(S(=O)(=O)c2ccc(N)cc2)cc1 [dapsone] | – | – | adverse reactions ([2]; fast acetylators): 17%; adverse reactions ([2]; slow acetylators): 46%
15 | COc1cccc2c1C(=O)c1c(O)c3c(c(O)c1C2=O)C[C@@](O)(C(=O)CO)C[C@@H]3O[C@H]1C[C@H](N)[C@H](O)[C@H](C)O1 [doxorubicin] | – | – | front-line response rate in breast cancer (breast cancer): 53%; incidence of cardiomyopathy (congestive heart failure and dysrhythmias) [3]: approximately 2%
16 | O=c1[nH]c(=O)c2[nH]cnc2[nH]1 [Xanthine] | 0^a % | 0 | –
17 | CC(=O)O[C@@]12CO[C@@H]1C[C@H](O)[C@@]1(C)C(=O)[C@H](O)C3=C(C)[C@@H](OC(=O)[C@H](O)[C@@H](NC(=O)OC(C)(C)C)c4ccccc4)C[C@@](O)([C@@H](OC(=O)c4ccccc4)[C@H]21)C3(C)C [Docetaxel] | – | – | front-line response rate in breast cancer (breast cancer): up to 73%
18 | Cn1c(=O)[nH]c2[nH]c(=O)n(C)c2c1=O [1,7-Dimethyluric acid] | 0% | 0 | –
19 | O=c1[nH]cnc2nc[nH]c12 [Hypoxanthine] | 0% | 0 | –
20 | Cn1cnc2[nH]c(=O)[nH]c(=O)c21 [7-Methyl Xanthine] | 0% | 0 | –
21 | CC/C(=C(\c1ccccc1)c1ccc(OCCN(C)C)cc1)c1ccccc1 [tamoxifen] | – | – | occurrence of hormone flare (increasing bone pain, erythema, hypercalcemia) ([4]; after 7-14 days of treatment, women with estrogen receptor-positive breast cancer and bone metastases): approximately 5%; individuals with hormone flare who respond to tamoxifen ([4]; individuals with hormone flare): 75%
22 | Cc1nc2[nH]c(=O)[nH]c(=O)c2[nH]1 [8-Methyl Xanthine] | 0% | 0 | –
23 | Cn1c(=O)c2[nH]cnc2n(C)c1=O [1,3-Dimethyl Xanthine (Theophylline), 1,3-Dimethyl Xanthine] | 0% | 0.2 | –

From patent publication US20030108484A1, “Individualization of therapy with antineoplastic agents” (McGill University, priority 2001, published 2003)
